Experimental data published in patent US20150290232A1, “DRUG COMPOSITION FOR TREATING TUMORS AND APPLICATION THEREOF” (priority 2012, published 2015).

Columns and labels:
Type in all cases: cell-based
[1] = tested on: CaES-17 (esophageal cancer cell); assay: MTT cell viability, human solid tumor cells; details: CaEs17, 72 h
Experimental: (§1) Well-growing cells of above were obtained and inoculated into wells of a 96-well cell culture plate at 5000 cells/well. Individual compounds of various concentrations were added, mixed uniformly, and incubated (5% CO2) at 37° C. for 72 hours. Then the cell viability was determined by the MTT method.
(§2) b) Determine the inhibitory effects of TTD in combination with Ada A on the human solid tumor cells. The pretreatment of the cells was the same as in a). The control group was not treated with the compound while administered. The two single-drug groups were added with respective active component to the concentration under which the IC50 of two compounds in a) achieve. As to the combination group, two compounds were added together into the same group of wells, with the fmal concentration being the concentration to which the IC50 of the single drugs correspond. After 72 hours of incubation, the MTT method was used for the determination of cell viability. The cell viability of the control group was set to 100% in this experiment, and the TTD, Ada A single drug and combined effects on cell viability (%) were calculated.

[2] = tested on: k562/ADR leukemia cells (drug-resistant chronic myeloid leukemia); assay: MTT cell viability, leukemia cells, TTD and Acla A alone and combined; details: Homo sapiens, K562/Adr, 72 h
Experimental: (§3) Well-growing leukemia cells were obtained and inoculated into wells of a 96-well cell culture plate at 5000 cells/well. Individual compounds of various concentrations were added, mixed uniformly, and incubated (5% CO2) at 37° C. for 72 hours. Then the cell viability was determined by the MTT method.
(§4) b) Determine the inhibitory effects of TTD in combination with Ada A on leukemia cells in vitro. The pretreatment of the cells was the same as in a). The control group was not treated with the compound while administered. […] After 72 hours of incubation, the MTT method was used for the determination of cell viability. The cell viability of the control group was set to 100% in this experiment, and the TTD, Ada A single drug and combined effects on cell viability (%) were calculated.

[3] = tested on: Jurkat cells (acute lymphoblastic leukemia); assay: as above; details: Homo sapiens, 72 h
Experimental: as §3, §4

[4] = tested on: kasumi-1 cells (acute myeloid leukemia M2 type); assay: as above; details: Homo sapiens, Kasumi 1, 72 h
Experimental: as §3, §4

[5] = tested on: Hela (human cervical cancer cell); assay: MTT cell viability, human solid tumor cells; details: HeLa, 72 h
Experimental: as §1
as §2, with “The two single-drug groups were added with respective active component to the concentration under which the IC50 of two compounds in a) achieve.” left out

[6] = tested on: Hep G2 (human hepatoma carcinoma cell); assay: MTT cell viability, human solid tumor cells; details: HepG2, 72 h
Experimental: as §1
as §2, with “The two single-drug groups were added with respective active component to the concentration under which the IC50 of two compounds in a) achieve.” left out

[7] = tested on: MGC-803 (human gastric cancer cell); assay: MTT cell viability, human solid tumor cells; details: MGC-803, 72 h
Experimental: as §1
as §2, with “The two single-drug groups were added with respective active component to the concentration under which the IC50 of two compounds in a) achieve.” left out

A549 (human lung cancer) = assay: MTT cell viability, human solid tumor cells; details: A549, 72 h
Experimental: as §1
as §2, with “The two single-drug groups were added with respective active component to the concentration under which the IC50 of two compounds in a) achieve.” left out

[8] = tested on: SPC-A-1 (human lung adenocarcinoma cell); assay: MTT cell viability, human solid tumor cells; details: SPCA1, 72 h
Experimental: as §1
as §2, with “The two single-drug groups were added with respective active component to the concentration under which the IC50 of two compounds in a) achieve.” left out

[9] = tested on: Panc-1 (pancreatic cancer); assay: MTT cell viability, human solid tumor cells; details: PANC-1, 72 h
Experimental: as §1
as §2, with “The two single-drug groups were added with respective active component to the concentration under which the IC50 of two compounds in a) achieve.” left out

[10] = tested on: Becap-37 (human breast cancer cell); assay: MTT cell viability, human solid tumor cells; details: 72 h
Experimental: as §1
as §2, with “The two single-drug groups were added with respective active component to the concentration under which the IC50 of two compounds in a) achieve.” left out

MG63 (osteosarcoma) = assay: MTT cell viability, human solid tumor cells; details: MG-63, 72 h
Experimental: as §1
as §2, with “The two single-drug groups were added with respective active component to the concentration under which the IC50 of two compounds in a) achieve.” left out

[11] = tested on: Huh7 (human liver cancer cell); assay: MTT cell viability, human solid tumor cells; details: Huh-7, 72 h
Experimental: as §1
as §2, with “The two single-drug groups were added with respective active component to the concentration under which the IC50 of two compounds in a) achieve.” left out

PC-3 (prostate cancer) = assay: MTT cell viability, human solid tumor cells; details: 72 h
Experimental: as §1
as §2, with “The two single-drug groups were added with respective active component to the concentration under which the IC50 of two compounds in a) achieve.” left out

[12] = tested on: U87-MG (malignant glioma cell); assay: MTT cell viability, human solid tumor cells; details: U-87 MG, 72 h
Experimental: as §1
as §2, with “The two single-drug groups were added with respective active component to the concentration under which the IC50 of two compounds in a) achieve.” left out

[13] = tested on: CNE (nasopharyngeal carcinoma cell); assay: MTT cell viability, human solid tumor cells; details: 72 h
Experimental: as §1
as §2, with “The two single-drug groups were added with respective active component to the concentration under which the IC50 of two compounds in a) achieve.” left out

[14] = tested on: Hep2 (laryngeal carcinoma); assay: MTT cell viability, human solid tumor cells; details: HEp-2, 72 h
Experimental: as §1
as §2, with “The two single-drug groups were added with respective active component to the concentration under which the IC50 of two compounds in a) achieve.” left out

[15] = tested on: SK-OV-3 (ovarian cancer cell); assay: MTT cell viability, human solid tumor cells; details: SK-OV-3, 72 h
Experimental: as §1
as §2, with “The two single-drug groups were added with respective active component to the concentration under which the IC50 of two compounds in a) achieve.” left out

[16] = tested on: RKO (human colon adenocarcinoma cell); assay: MTT cell viability, human solid tumor cells; details: 72 h
Experimental: as §1
as §2, with “The two single-drug groups were added with respective active component to the concentration under which the IC50 of two compounds in a) achieve.” left out

[17] = read-out: concentration (IC50 value of 72 hours)

CC[C@@]1(O)C[C@H](O[C@H]2C[C@H](N(C)C)[C@H](O[C@H]3C[C@H](O)[C@H](O[C@H]4CCC(=O)[C@H](C)O4)[C@H](C)O3)[C@H](C)O2)c2c(cc3c(c2O)C(=O)c2c(O)cccc2C3=O)[C@H]1C(=O)OC [Acla A, aclarubicin A]
viability at 0.24 µg/mL ([1]; read-out: CV (cell viability)): 45.4%
IC50 [1, 17]: 0.24 µg/mL
viability at 0.09 µg/mL ([2]; read-out: CV (cell viability)): 49.1%
IC50 [2, 17]: 0.09 µg/mL
viability at 0.029 µg/mL ([3]; read-out: CV (cell viability)): 58%
IC50 [3, 17]: 0.029 µg/mL
viability at 0.04 µg/mL ([4]; read-out: CV (cell viability)): 52.5%
IC50 [4, 17]: 0.04 µg/mL
viability at 0.095 µg/mL ([5]; read-out: CV (cell viability)): 52.7%
IC50 [5, 17]: 0.095 µg/mL
viability at 0.25 µg/mL ([6]; read-out: CV (cell viability)): 51.6%
IC50 [6, 17]: 0.25 µg/mL
viability at 0.1 µg/mL ([7]; read-out: CV (cell viability)): 42.2%
IC50 [7, 17]: 0.1 µg/mL
viability at 0.08 µg/mL (A549 (human lung cancer); read-out: CV (cell viability)): 50.4%
IC50 (A549 (human lung cancer); [17]): 0.08 µg/mL
viability at 0.03125 µg/mL ([8]; read-out: CV (cell viability)): 50.6%
IC50 [8, 17]: 0.0312 µg/mL
viability at 0.25 µg/mL ([9]; read-out: CV (cell viability)): 58%
IC50 [9, 17]: 0.25 µg/mL
viability at 0.5 µg/mL ([10]; read-out: CV (cell viability)): 44.8%
IC50 [10, 17]: 0.5 µg/mL
viability at 0.1 µg/mL (MG63 (osteosarcoma); read-out: CV (cell viability)): 46.6%
IC50 (MG63 (osteosarcoma); [17]): 0.1 µg/mL
viability at 0.05 µg/mL ([11]; read-out: CV (cell viability)): 44.5%
IC50 [11, 17]: 0.05 µg/mL
viability at 0.8 µg/mL (PC-3 (prostate cancer); read-out: CV (cell viability)): 46.1%
IC50 (PC-3 (prostate cancer); [17]): 0.8 µg/mL
viability at 0.21 µg/mL ([12]; read-out: CV (cell viability)): 54.1%
IC50 [12, 17]: 0.21 µg/mL
viability at 0.15 µg/mL ([13]; read-out: CV (cell viability)): 48.9%
IC50 [13, 17]: 0.15 µg/mL
viability at 0.25 µg/mL ([14]; read-out: CV (cell viability)): 51%
IC50 [14, 17]: 0.25 µg/mL
viability at 0.25 µg/mL ([15]; read-out: CV (cell viability)): 53.4%
IC50 [15, 17]: 0.25 µg/mL
viability at 0.04 µg/mL ([16]; read-out: CV (cell viability)): 49.6%
IC50 [16, 17]: 0.04 µg/mL
